Assay results taken from paper PMC12067350, “Discovery of Thieno[3,2‑b]pyridine-5-carboxamide and 2,3-Difluorobenzamide Negative Allosteric Modulators of Metabotropic Glutamate Receptor Subtype 5” (ACS Medicinal Chemistry Letters, 2025).

Legend:
Type in all cases: in vitro ADME
[1] = Intrinsic clearance in rat liver microsomes; details: for CLint scaled at 0.75 h, 1 µM: pH 7.4, rat liver microsomes; for rat CLhep: predicted hepatic clearance from in vitro rat microsomal data
Experimental: Intrinsic Clearance in Rat and Human Liver Microsomes
The in vitro intrinsic clearance (CL int) was investigated in commercially obtained hepatic microsomes from rat and human donors using the substrate depletion (i.e., loss-of-parent vs. time, or t 1/2 method) approach with analyte detection via liquid chromatography-tandem mass spectrometry (LC-MS/MS). For each species, mean %parent remaining values at each time point were calculated from replicates raw data (analyte:IS peak area ratios) and used to determine in vitro t 1/2 and CLint.
Experiments were carried out using a robot-assisted (TECAN model Evo 200). Compound was incubated (1 µM final concentration) in buffer (100 mM potassium phosphate pH 7.4 with 3 mM MgCl2) containing hepatic microsomes (0.5 mg/mL final concentration) from multiple species, discretely, at 37 °C under constant orbital shaking. After 5 minutes (pre-incubation), reactions were initiated by addition of nicotinamide adenine dinucleotide phosphate (NADPH, 1 mM final concentration). At selected time intervals (0, 3, 7, 15, 25, and 45 minutes) post-addition of NADPH, aliquots (50 µL) were taken and placed into a 96-shallow-well plate containing ice cold acetonitrile (150 µL) with carbamazepine (IS, 50 nM). The plates were then centrifuged (3000 rcf at 4 °C) for 10 minutes. The supernatants were transferred to a new 96-shallow-well daughter plate and diluted (1:1 v/v) with water (Milli-Q filtered). The plates were then sealed in preparation for LC-MS/MS analysis (see below).
Raw LC-MS/MS peak area data generated from the assay samples were used to construct natural log-transformed %parent remaining vs. time plots (using t = 0 minute post-NADPH addition sample data as starting point set to 100%). In vitro compound half-life (t 1/2) values were obtained using the following […]
k is the slope from linear regression analysis of the natural log-transformed data (using means from Where all replicates at each time point). Resulting t 1/2 values were then used to calculate hepatic CLint values according to the following equation and with the use of species-specific scale-up factors for liver weight (grams) per total body weight (kg):
CL = 0.693 x 1 mL incubation x 45 mg microsomes x a gram liver
int in vitro t1/2 0.5 mg microsomes 1 gram liver kg body wt aScale-up factors used are 45 (rat) and 20 (human).1
Predicted hepatic clearance (CLhep) was calculated using the following equation: […]
Qh represents hepatic blood flow (mL/min/kg): 21 for human, 70 for rat, and 90 for mouse.

CYP3A4 = molecular target: T1, CYP3A4 (Homo sapiens, UniProt P08684); experiment: Cytochrome P450 inhibition using human liver microsomes, CYP3A4; details: read-out: CYP 450 IC50, 3A4
T1 construct: from tissue; host or cells: human liver microsomes
Experimental: Cytochrome P450 inhibition using Liver Microsomes.
The ability of compounds to inhibit cytochrome P450s (CYPs) was tested using human liver microsomes and a cocktail of substrates specific for CYP1A2, 2C9, 2D6 and 3A4. Compounds were incubated at 37C in presence of human liver microsomes (0.1 mg/ml) at 30, 10, 3, 1, 0.3 and 0.1 µM. A cocktail of substrate was also added for each CYP tested: phenacetin (10 µM, CYP1A2), diclofenac (5 µM, CYP2C9), dextromethorphan (5 µM, CYP2D6) and midazolam (2 µM, CYP3A4). HLM were also incubated with the control inhibitor miconazole at 3, 1, 0.3, 0.1, 0.03 and 0.01 µM. […]
The concentrations of CYP-specific metabolites generated at the end of the reaction were quantified by mass spectrometry using standard curves for each metabolite: acetaminophen (CYP1A2), 4-hydroxydiclofenac (CYP2C9), dextrophan (CYP2D6) and 1-hydroxymidazolam (CYP3A4). A concentration response curve for each metabolite was generated and IC50s were calculated using Prism. The LC-MS/MS transitions for metabolite quantifications are as follows. […]
Prepared samples were injected (10 µL each) onto an AB Sciex Triple Quad 4500 mass spectrometer system with an Agilent 1260 Infinity II pump and autosampler. […] Quantitation of compounds was performed via AB Sciex Multiquant software using the raw analyte:IS peak area ratios. […]

[2] = Binding in brain homogenate from rat (equilibrium dialysis); details: fraction unbound, rat brain homogenates
Experimental: Binding in plasma from rat and human.
Determination of compounds’ fraction unbound (f u) in plasma from rat and human was conducted in vitro via equilibrium dialysis using HTDialysis membrane plates. Dialysis membranes (four paired strips per HTD assay) were hydrated as described by the manufacturer and inserted into the HTD plate, which was assembled and prepared for sample addition by the dispensing of blank buffer (DPBS, 100 µL/well) into the ‘top half’ of each membrane-split well. Each compound was diluted into plasma from each species (5 µM final concentration), which was aliquoted in triplicate to the ‘bottom half’ of the prepared HTD plate wells. […] Supernatant (60 µL) from each well of the daughter plates was then transferred to the corresponding wells of new daughter plates (96-shallow-well, V bottom) containing water (Milli-Q, 60 µL/well), and the plates were sealed in preparation for LC-MS/MS analysis (see below). fu was calculated as (analyte to IS MS peak area ratio from Trans-buffer side) / (analyte to IS MS peak area ratio from Cis-plasma side). Mean values for each species were calculated from 3 replicates. […]
The diluted fraction unbound (f u2) in brain was calculated as (analyte to IS MS peak area ratio from Trans-buffer side) / (analyte to IS MS peak area ratio from Cis-brain homogenate side). […]
Mean values for each species were calculated from 3 replicates.

T1 sequence (P08684 whole entry): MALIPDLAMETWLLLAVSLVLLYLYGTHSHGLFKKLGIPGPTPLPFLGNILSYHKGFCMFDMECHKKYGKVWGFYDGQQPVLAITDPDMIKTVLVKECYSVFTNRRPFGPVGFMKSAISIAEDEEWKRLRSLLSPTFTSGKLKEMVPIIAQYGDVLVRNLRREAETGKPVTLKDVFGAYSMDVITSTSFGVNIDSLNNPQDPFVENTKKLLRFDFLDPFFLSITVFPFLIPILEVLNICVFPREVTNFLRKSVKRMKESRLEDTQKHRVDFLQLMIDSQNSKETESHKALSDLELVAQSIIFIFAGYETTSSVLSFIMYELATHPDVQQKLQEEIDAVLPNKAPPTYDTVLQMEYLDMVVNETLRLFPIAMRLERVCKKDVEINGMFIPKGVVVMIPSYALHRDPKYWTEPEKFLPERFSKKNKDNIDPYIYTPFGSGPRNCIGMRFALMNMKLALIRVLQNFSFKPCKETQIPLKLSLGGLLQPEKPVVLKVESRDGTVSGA

| SMILES | CLint scaled at 0.75 h, 1 µM [1] [mL/min/kg] | rat CLhep [1] [mL/min/kg] | IC50 (CYP3A4) [µM] | Rat f u,brain [2] |
| --- | --- | --- | --- | --- |
| Cc1csc(NC(=O)c2cc(O[C@@H]3CCOC3)c3sccc3n2)n1 [19aA] | 143 | 47.0 | > 30 | 0.009 |
| Cc1csc(NC(=O)c2cc(O[C@@H]3CCOC3)cc(F)c2F)n1 [27cA] | 116 | 43.7 | > 30 | 0.051 |
